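Abbreviation: GI50, concentration required for 50% inhibition of growth. TGI denotes the concentration required for complete inhibition of growth.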
What was measured:
Assay in all cases: NCI anticancer screen, dose series, 384-well format
PC-3 prostate = system: PC-3 prostate
OVCAR-8 ovarian = system: OVCAR-8 ovarian
UACC-257 melanoma = system: UACC-257 melanoma
LOX IMVI melanoma = system: LOX IMVI melanoma
SF-295 CNS = system: SF-295 CNS
UACC-62 melanoma = system: UACC-62 melanoma
MCF7 breast = system: MCF7 breast
MOLT-4 leukemia = system: MOLT-4 leukemia
CCRF-CEM leukemia = system: CCRF-CEM leukemia
SR leukemia = system: SR leukemia
OVCAR-5 ovarian = system: OVCAR-5 ovarian
A498 renal = system: A498 renal
CAKI-1 renal = system: CAKI-1 renal
DU-145 prostate = system: DU-145 prostate
BT-549 breast = system: BT-549 breast
HL-60(TB) leukemia = system: HL-60(TB) leukemia
A549 NSCLC = system: A549 NSCLC
HCT-15 colon = system: HCT-15 colon
HCT-116 colon = system: HCT-116 colon
RXF 393 renal = system: RXF 393 renal
RPMI-8226 leukemia = system: RPMI-8226 leukemia
SK-MEL-5 melanoma = system: SK-MEL-5 melanoma
SN12C renal = system: SN12C renal
MDA-MB-231 breast = system: MDA-MB-231 breast
MDA-MB-468 breast = system: MDA-MB-468 breast
HOP-62 NSCLC = system: HOP-62 NSCLC
HOP-92 NSCLC = system: HOP-92 NSCLC
SW-620 colon = system: SW-620 colon

How did the GI50 (PC-3 prostate) turn out when C=CCN1CC(=O)N2[C@@H](Cc3ccc(O)cc3F)C(=O)N(Cc3cccc(N4CC(N5CCN(CC)CC5)C4)n3)C[C@@H]2N1C(=O)NCc1ccccc1 was run?
Its GI50 is 27.8 nM.

What about the TGI (PC-3 prostate) of the same molecule?
Its TGI is 91.1 nM.

And the GI50 (OVCAR-8 ovarian)?
Its GI50 is 23.8 nM.

And the TGI (OVCAR-8 ovarian)?
Its TGI is 282 nM.

What about the GI50 (UACC-257 melanoma) of the same molecule?
The GI50 was 50.2 nM.

And the TGI (UACC-257 melanoma)?
The TGI was 333 nM.

What about the GI50 (LOX IMVI melanoma) of the same molecule?
Its GI50 is 33.7 nM.

And the TGI (LOX IMVI melanoma)?
Its TGI is 98.7 nM.

And the GI50 (SF-295 CNS)?
The GI50 was 79.8 nM.

And the TGI (SF-295 CNS)?
Its TGI is 528 nM.

And the GI50 (UACC-62 melanoma)?
The GI50 was 21.4 nM.

What about the TGI (UACC-62 melanoma) of the same molecule?
Its TGI is 67.5 nM.

What about the GI50 (MCF7 breast) of the same molecule?
Its GI50 is 472 nM.

What about the TGI (MCF7 breast) of the same molecule?
Its TGI is 46400 nM.

What about the GI50 (MOLT-4 leukemia) of the same molecule?
The GI50 was 10.4 nM.

And the TGI (MOLT-4 leukemia)?
Its TGI is 22.6 nM.

And the GI50 (CCRF-CEM leukemia)?
The GI50 was 29.8 nM.

What about the TGI (CCRF-CEM leukemia) of the same molecule?
The TGI was 231 nM.

And the GI50 (SR leukemia)?
Its GI50 is 26.2 nM.

What about the TGI (SR leukemia) of the same molecule?
Its TGI is 58.4 nM.

What about the GI50 (OVCAR-5 ovarian) of the same molecule?
Its GI50 is 20.4 nM.

What about the TGI (OVCAR-5 ovarian) of the same molecule?
The TGI was 66.1 nM.

And the GI50 (A498 renal)?
The GI50 was 35.4 nM.

What about the TGI (A498 renal) of the same molecule?
The TGI was 232 nM.

And the GI50 (CAKI-1 renal)?
The GI50 was 30 nM.

And the TGI (CAKI-1 renal)?
The TGI was 105 nM.

And the GI50 (DU-145 prostate)?
The GI50 was 59.4 nM.

What about the TGI (DU-145 prostate) of the same molecule?
The TGI was 23000 nM.

And the GI50 (BT-549 breast)?
The GI50 was 27.6 nM.

What about the TGI (BT-549 breast) of the same molecule?
Its TGI is 98.4 nM.

What about the GI50 (HL-60(TB) leukemia) of the same molecule?
Its GI50 is 57.8 nM.

What about the TGI (HL-60(TB) leukemia) of the same molecule?
The TGI was 293 nM.

And the GI50 (A549 NSCLC)?
Its GI50 is 31.5 nM.

What about the TGI (A549 NSCLC) of the same molecule?
Its TGI is 3130 nM.

And the GI50 (HCT-15 colon)?
Its GI50 is 315 nM.

And the TGI (HCT-15 colon)?
Its TGI is 3760 nM.

What about the GI50 (HCT-116 colon) of the same molecule?
The GI50 was 23.9 nM.

And the TGI (HCT-116 colon)?
The TGI was 296 nM.

What about the GI50 (RXF 393 renal) of the same molecule?
Its GI50 is 62.5 nM.

What about the TGI (RXF 393 renal) of the same molecule?
The TGI was 593 nM.

And the GI50 (RPMI-8226 leukemia)?
Its GI50 is 17.8 nM.

And the TGI (RPMI-8226 leukemia)?
The TGI was 33.9 nM.

And the GI50 (SK-MEL-5 melanoma)?
The GI50 was 24.3 nM.

And the TGI (SK-MEL-5 melanoma)?
Its TGI is 70.6 nM.

What about the GI50 (SN12C renal) of the same molecule?
Its GI50 is 47.4 nM.

What about the TGI (SN12C renal) of the same molecule?
Its TGI is 18600 nM.

What about the GI50 (MDA-MB-231 breast) of the same molecule?
Its GI50 is 10.8 nM.

And the TGI (MDA-MB-231 breast)?
The TGI was 34.9 nM.

What about the GI50 (MDA-MB-468 breast) of the same molecule?
Its GI50 is 28.5 nM.

And the TGI (MDA-MB-468 breast)?
The TGI was 87.3 nM.

What about the GI50 (HOP-62 NSCLC) of the same molecule?
Its GI50 is 32.3 nM.

And the TGI (HOP-62 NSCLC)?
Its TGI is 190 nM.

And the GI50 (HOP-92 NSCLC)?
The GI50 was 13.9 nM.

What about the TGI (HOP-92 NSCLC) of the same molecule?
Its TGI is 46.4 nM.

What about the GI50 (SW-620 colon) of the same molecule?
The GI50 was 84.7 nM.

And the TGI (SW-620 colon)?
Its TGI is greater than 100000 nM.
